Experimental data: BindingDB's records for doi:10.1016/s0960-894x(01)00004-x (Seoul National University, 2001)

What follows are compounds tested against Prostaglandin G/H synthase 1 (Oryctolagus cuniculus) (assay: Inhibitory activity against Prostaglandin G/H synthase 1 from rabbit renal microsomes).

SMILES	IC50 [µM]
C[C@]1(CCF)CC=C2C(CCC3[C@](C)(C(=O)F)CCC[C@@]23C)C1 (stereo partly drawn) [(1R,4aR,7S)-7-(2-Fluoro-ethyl)-1,4a,7-trimethyl-1,2,3,4,4a,6,7,8,8a,9,10,10a-dodecahydro-phenanthrene-1-carbonyl fluoride]	18.4
CC[C@@]1(C)CC=C2C(CCC3[C@](C)(C(=O)O)CCC[C@@]23C)C1 (stereo partly drawn) [(1R,4aR,7S)-7-Ethyl-1,4a,7-trimethyl-1,2,3,4,4a,6,7,8,8a,9,10,10a-dodecahydro-phenanthrene-1-carboxylic acid]	229
C=C[C@@]1(C)CC=C2C(CCC3[C@](C)(CC(=O)O)CCC[C@@]23C)C1 (stereo partly drawn) [((1S,4aR,7S)-1,4a,7-Trimethyl-7-vinyl-1,2,3,4,4a,6,7,8,8a,9,10,10a-dodecahydro-phenanthren-1-yl)-acetic acid]	28.1
C=C[C@@]1(C)CC=C2C(CCC3[C@](C)(CCC/C=C/C(=O)O)CCC[C@@]23C)C1 (stereo partly drawn) [(E)-6-((1R,4aR,7S)-1,4a,7-Trimethyl-7-vinyl-1,2,3,4,4a,6,7,8,8a,9,10,10a-dodecahydro-phenanthren-1-yl)-hex-2-enoic acid]	32.7

Second part, the compound after the results:

IC50 [µM]	SMILES
45.6	C=C[C@@]1(C)CC=C2C(CCC3[C@](C)(C(=O)NO)CCC[C@@]23C)C1 (stereo partly drawn) [(1R,4aR,7S)-1,4a,7-Trimethyl-7-vinyl-1,2,3,4,4a,6,7,8,8a,9,10,10a-dodecahydro-phenanthrene-1-carboxylic acid hydroxyamide]
> 1000	C=C[C@@]1(C)CC=C2C(CCC3[C@](C)(C(=O)OC)CCC[C@@]23C)C1 (stereo partly drawn) [(1R,4aR,7S)-1,4a,7-Trimethyl-7-vinyl-1,2,3,4,4a,6,7,8,8a,9,10,10a-dodecahydro-phenanthrene-1-carboxylic acid methyl ester]
791	C=C[C@@]1(C)CC=C2C(CCC3[C@](C)(CO)CCC[C@@]23C)C1 (some centres not stated) [acanthol]
